Data as given in patent publication US4178442A, “Novel cinnamoyles piperazines and homopiperazines, the method of preparing them and their application in therapeutics” (Delalande S. A., priority 1977, dated 1979).
Read-outs that look alike come from different tables or passages of the source.

What was measured:
anaesthetized dog [1] = assay: Activity on the cerebral circulation, anaesthetized dog; type: in vivo; conditions: dog; for change in vivo at 5 mg/kg / change in vivo at 2 mg/kg: Canis lupus familiaris, iv
Protocol: The activity on the cerebral circulation was tested on an anaesthetized dog (sodium pentobarbital 30 mg/kg/i.v.). The vertebral artery flow was measured by means of an electromagnetic perivascular or ultrasonic Doppler effect probe. The intracerebral vascular resistance was estimated by the back pressure of the internal carotid artery. […] The increase in the extraction of cerebral oxygen was estimated by the following equation:(A-V)/A in which: A represents the volume of oxygen in the arterial blood (% volume) measured by hemoreflectometry (KIPP and ZONEN's apparatus) and quantity determination of the haemoglobin (DRABKIN's method). V represents the volume of oxygen in the cerebral venous blood (internal maxillary vein). […] It should be noted that the compounds tested were injected intravenously (rapid injection).

in vivo = conditions: iv; for LD50: read-out: Toxicity: LD50
Source text: *LD50 or percentage of mortality which is given between brackets

anaesthetized dog [2] = assay: Antiangorous activity on anaesthetized dog: consumption of oxygen in the left ventricule and cardiac effort (KATZ's index); type: in vivo; conditions: for inhibition in vivo at 9.1 mg/kg / inhibition in vivo at 2.5 mg/kg / inhibition in vivo at 2.3 mg/kg: Canis lupus familiaris, iv
Summary of the method: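 Katz index taken as mean arterial pressure multiplied by ECG (D2) heart rate, and myocardial O2 use as coronary sinus flow via modified Morawitz cannula times coronary arteriovenous O2 difference. Animals: pentobarbital-anaesthetized dogs (30 mg/kg i.v.), test compounds infused slowly intravenously.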

anaesthetized dog [3] = assay: Activity on the peripheral circulation, anaesthetized dog; type: in vivo; conditions: dog; for change in vivo at 10 mg/kg / change in vivo at 5 mg/kg: Canis lupus familiaris, iv
Protocol: The activity on the peripheral circulation was studied on an anaesthetized dog (sodium pentobarbital 30 mg/kg/i.v.). The femoral artery flow was measured by means of an electromagnetic or ultrasonic perivascular Doppler effect probe.

[4] = 5 mg/kg i.v. rapid injection, read-out: Internal carotid artery back pressure
[5] = 5 mg/kg i.v. rapid injection, read-out: Systemic average arterial pressure
[6] = 5 mg/kg i.v. rapid injection, read-out: Vertebral artery flow
[7] = 2.5 mg/kg i.v. slow perfusion, read-out: Diminution in consumption of O2
[8] = 2.5 mg/kg i.v. slow perfusion, read-out: Diminution in the cardiac effort (IK)
[9] = 5 mg/kg i.v. slow perfusion, read-out: Average arterial pressure
[10] = 5 mg/kg i.v. slow perfusion, read-out: Femoral artery flow

| SMILES | change in vivo at 5 mg/kg (anaesthetized dog [1]; [4]) | change in vivo at 5 mg/kg (anaesthetized dog [1]; [5]) | change in vivo at 5 mg/kg (anaesthetized dog [1]; [6]) | Internal carotid artery back pressure: in time (anaesthetized dog [1]; 5 mg/kg i.v. rapid injection) | Systemic average arterial pressure: in time (anaesthetized dog [1]; 5 mg/kg i.v. rapid injection) | Vertebral artery flow: in time (anaesthetized dog [1]; 5 mg/kg i.v. rapid injection) | Diminution in consumption of O2: in time (anaesthetized dog [2]; 2.5 mg/kg i.v. slow perfusion) | Diminution in the cardiac effort (IK): in time (anaesthetized dog [2]; 2.5 mg/kg i.v. slow perfusion) | inhibition in vivo at 2.5 mg/kg (anaesthetized dog [2]; [7]) | inhibition in vivo at 2.5 mg/kg (anaesthetized dog [2]; [8]) | change in vivo at 5 mg/kg (anaesthetized dog [3]; [9]) | change in vivo at 5 mg/kg (anaesthetized dog [3]; [10]) | Average arterial pressure: in time (anaesthetized dog [3]; 5 mg/kg i.v. slow perfusion) | Femoral artery flow: in time (anaesthetized dog [3]; 5 mg/kg i.v. slow perfusion) | further results |
| --- | --- | --- | --- | --- | --- | --- | --- | --- | --- | --- | --- | --- | --- | --- | --- |
| COc1cc(/C=C/C(=O)N2CCCN(CC(O)COc3ccccc3)CC2)cc(OC)c1OC (centres unmarked) [760 388] | -65% | -44% | 225% | 50 min | 50 min | 50 min |  |  |  |  |  |  |  |  |  |
| COc1cccc(OCC(O)CN2CCN(C(=O)/C=C/c3cc(OC)c(OC)c(OC)c3)CC2)c1 (centres unmarked) [760 390] | -22% | -13% | 177% | 5 min | < 10 min | 30 min |  |  |  |  |  |  |  |  | LD50 (in vivo): 227 mg/kg; Diminution in consumption of O2: in time (anaesthetized dog [2]; 9.1 mg/kg i.v. slow perfusion): 53 min; Diminution in the cardiac effort (IK): in time (anaesthetized dog [2]; 9.1 mg/kg i.v. slow perfusion): 45 min; inhibition in vivo at 9.1 mg/kg (anaesthetized dog [2]; 9.1 mg/kg i.v. slow perfusion, read-out: Diminution in consumption of O2): 64%; inhibition in vivo at 9.1 mg/kg (anaesthetized dog [2]; 9.1 mg/kg i.v. slow perfusion, read-out: Diminution in the cardiac effort (IK)): 60% |
| COc1ccccc1OCC(O)CN1CCN(C(=O)/C=C/c2cc(OC)c(OC)c(OC)c2)CC1 (centres unmarked) [760 392] |  |  |  |  |  |  | 30 min | 30 min | 31% | 11% |  |  |  |  | change in vivo at 10 mg/kg (anaesthetized dog [3]; 10 mg/kg i.v. slow perfusion, read-out: Average arterial pressure): -28%; change in vivo at 10 mg/kg (anaesthetized dog [3]; 10 mg/kg i.v. slow perfusion, read-out: Femoral artery flow): 56%; Average arterial pressure: in time (anaesthetized dog [3]; 10 mg/kg i.v. slow perfusion): 38 min; Femoral artery flow: in time (anaesthetized dog [3]; 10 mg/kg i.v. slow perfusion): 45 min; change in vivo at 2 mg/kg (anaesthetized dog [1]; 2 mg/kg i.v. rapid injection, read-out: Internal carotid artery back pressure): -79%; change in vivo at 2 mg/kg (anaesthetized dog [1]; 2 mg/kg i.v. rapid injection, read-out: Systemic average arterial pressure): -39%; change in vivo at 2 mg/kg (anaesthetized dog [1]; 2 mg/kg i.v. rapid injection, read-out: Vertebral artery flow): 186%; Internal carotid artery back pressure: in time (anaesthetized dog [1]; 2 mg/kg i.v. rapid injection): > 30 min; Systemic average arterial pressure: in time (anaesthetized dog [1]; 2 mg/kg i.v. rapid injection): 30 min; Vertebral artery flow: in time (anaesthetized dog [1]; 2 mg/kg i.v. rapid injection): < 30 min |
| COc1cc(/C=C/C(=O)N2CCN(CC(O)COc3cccc(OC)c3OC)CC2)cc(OC)c1OC (centres unmarked) [760 393] | -62% | -33% | 150% |  | 30 min | < 2 min | 15 min | 15 min | 47% | 5% |  |  |  |  | LD50 (in vivo): 319 mg/kg |
| COc1cc(/C=C/C(=O)N2CCN(CC(O)COc3ccccc3C(C)=O)CC2)cc(OC)c1OC (centres unmarked) [760 455] | -90% | -39% | 120% | 20 min | 30 min | 6 min | 15 min | 30 min | 45% | 24% |  |  |  |  | mortality (in vivo; 255 mg/kg i.v., read-out: Toxicity (Mortality)): 50% |
| COc1cc(/C=C/C(=O)N2CCN(CC(O)COc3ccc(C#N)cc3)CC2)cc(OC)c1OC (centres unmarked) [760 501] |  |  |  |  |  |  |  |  |  |  | -22% | 61% | 35 min | 23 min | Diminution in consumption of O2: in time (anaesthetized dog [2]; 2.3 mg/kg i.v. slow perfusion): 45 min; Diminution in the cardiac effort (IK): in time (anaesthetized dog [2]; 2.3 mg/kg i.v. slow perfusion): 15 min; inhibition in vivo at 2.3 mg/kg (anaesthetized dog [2]; 2.3 mg/kg i.v. slow perfusion, read-out: Diminution in consumption of O2): 75%; inhibition in vivo at 2.3 mg/kg (anaesthetized dog [2]; 2.3 mg/kg i.v. slow perfusion, read-out: Diminution in the cardiac effort (IK)): 4% |
| COc1cc(/C=C/C(=O)N2CCN(CC(O)COc3ccccc3C)CC2)cc(OC)c1OC (centres unmarked) [760 502] |  |  |  |  |  |  |  |  |  |  | -22% | 190% | 15 min | 35 min |  |
| C=CCOc1ccccc1OCC(O)CN1CCN(C(=O)/C=C/c2cc(OC)c(OC)c(OC)c2)CC1 (centres unmarked) [760 503] |  |  |  |  |  |  |  |  |  |  | -6% | 87% | 15 min | 15 min |  |
